According to patent publication US11332472B2, “Substituted piperidines as inhibitors of ubiquitin specific protease 7” (LES LABORATOIRES SERVIER, priority 2017, dated 2022):

How the values were obtained:
[1] = tested on: Z138 mantle cell lymphoma tumour cell line; assay: In vitro cytotoxicity, MTT assay, Z138 cells; type: cell-based; details: Homo sapiens, Z-138; Z138 tumour cell line (underlined values); 96 hours exposure
Procedure: (§1) The cytotoxicity studies were evaluated by MTT assay and carried out on MM 1S multiple myeloma or Z138 mantle cell lymphoma tumour cell lines. The cells are distributed onto microplates and exposed to the test compounds for 96 hours. The cell viability is then quantified by a colorimetric assay, the Microculture Tetrazolium Assay (Carmichael et. al., Cancer Res. […], 47, 936-942).

USP7 = target: T1, USP7 (Homo sapiens, UniProt Q93009, C315A); assay: Inhibition of USP7 by Fluorescence Intensity (FLINT) readings, Ubiquitin-Rhodamine-110 substrate; type: biochemical; details: 0.25 nM His-His-USP7 (aa208-560, [C315A]); compound 60 minutes at 30° C.; 500 nM Ubiquitin-Rhodamine substrate; 11-point curves
T1 construct: 0.25 nM His-His-USP7 (aa208-560, [C315A]) was incubated with compound; His-His (N)
T1 sequence (Q93009 208-560 C315A): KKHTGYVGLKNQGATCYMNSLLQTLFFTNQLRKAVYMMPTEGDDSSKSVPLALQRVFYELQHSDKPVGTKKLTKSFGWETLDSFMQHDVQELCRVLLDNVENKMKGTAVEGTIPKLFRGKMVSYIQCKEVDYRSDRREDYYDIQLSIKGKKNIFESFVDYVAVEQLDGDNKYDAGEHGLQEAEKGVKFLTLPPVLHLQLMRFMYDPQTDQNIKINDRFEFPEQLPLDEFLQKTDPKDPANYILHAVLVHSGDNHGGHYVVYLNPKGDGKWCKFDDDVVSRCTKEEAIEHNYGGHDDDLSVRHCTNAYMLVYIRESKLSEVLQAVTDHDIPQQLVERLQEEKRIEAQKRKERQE
Summary of the method: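 His-His-USP7 (aa208-560, C315A) at 0.25 nM was preincubated with compound for 60 min at 30 °C in 100 mM Bicine pH 8.0, 0.01% Triton X-100, 1 mM TCEP, 10% DMSO. 500 nM ubiquitin-rhodamine-110 was then added, with fluorescence (Ex 485/Em 535 nm) read every 3 min for 21 min. IC50 came from kinetic-rate inhibition, 11-point curves, 4-parameter fit.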

[2] = tested on: MM 1S multiple myeloma tumour cell line; assay: In vitro cytotoxicity, MTT assay, MM1S cells; type: cell-based; details: Homo sapiens, MM1.S, 96 hours exposure
Procedure: as §1

- IC50 (USP7): 23.1 nM
Structure (SMILES): COc1ccc(-n2ccc3c(=O)n(CC4(O)CCN(C(=O)[C@@H]5CCC(F)(F)C[C@H]5c5ccccc5)CC4)cnc32)cc1 (single isomer, unassigned) [Example 34, 3-[[1-[trans-4,4-difluoro-2-phenyl-cyclohexanecarbonyl]-4-hydroxy-4-piperidyl]methyl]-7-(4-methoxyphenyl)pyrrolo[2,3-d]pyrimidin-4-one]
- IC50 [1]: 5.66 nM
- IC50 [2]: 24.5 nM
